Reference: PubChem BioAssay AID2060509 (Molecular Pharmacology Branch, DTP, NCI, 2025)
Where “and” joins values, the source holds several entries; their conditions need not be identical. Identical values can stand only once.

Test system: 485176-168-R4-J1-PDC spheroids with HUVEC/MSC, viability
Assay: Anticancer human tumor 485176-168-R4-J1-PDC patient-derived pancreatic adenocarcinoma cell line growth inhibition [GQUAD]
Conditions: for viability, T/C: stronger effect = lower value; active = viability on the fitted dose curve at most 10% of control; inactive = the rest
From the text: DNA G-quadruplex Stabilizer Agents in Combinations in Complex Spheroids
A high-throughput screen of multi-cell type tumor spheroids was designed to identify active combinations of DNA G-quadruplex stabilizer agents and targeted small molecules. Complex spheroids include a stromal component modeled by human endothelial cells (HUVEC) and fibroblasts modeled by human mesenchymal stem cells (MSCs). The concentration ranges selected for each drug and investigational agent were based upon clinically achievable concentrations if the clinical Cmax of the agent was known.
Compounds. The drugs and investigational agents: pidnarulex (CX-5461; NSC782164), APTO-253 (NSC789042), BRACO-19 (NSC847499), peposertib (NSC802822), ceralasertib (NSC780249), elimusertib (NSC800525), camonsertib (NSC841442), AZD-1390 (NSC803789), olaparib (NSC753686), talazoparib (NSC767125), ART-558 (NSC835418), sotorasib (NSC818433), MRTX-1133 (NSC836407), SN-38 (NSC673596), topotecan (NSC609699), etoposide (NSC141540), doxorubicin (NSC123127), gemcitabine (NSC613327), 5-fluorouracil (NSC19893), paclitaxel (NSC125973), vemurafenib (NSC761431), panobinostat (NSC761190), R-306465 (JNJ-16241199; NSC773264), adavosertib (NSC754352), TP-3654 (NSC805149), carboplatin (NSC241240), KSQ-4279 (NSC840948), and staurosporine (NSC755774) were obtained from the National Cancer Institute (NCI) Developmental Therapeutics Program Chemical Repository (34). The FDA-approved anticancer drug set is available from the NCI Developmental Therapeutics Program. […] The stock solutions were prepared in dimethyl sulfoxide (DMSO, Sigma-Aldrich, St. Louis, MO, cat. D2650) at 800-fold the tested concentration and stored at -70 degrees C prior to their use. All drugs and investigational agents were tested over a range starting from a high concentration at or near the clinical Cmax and decreasing in half-log increments. If the clinical Cmax for an agent had not been determined, the highest concentration tested was 10 microM.
2.3 Cell Culture. All cells were maintained in an incubator at 37 degrees C and 5% CO2 with 95% humidity. The PDC lines were cultured according to standard operating procedures established by the NCI PDMR. All PDCs were thawed and cultured in Matrigel-coated flasks prepared with a working solution of 1X Ham's F-12 nutrient mix, without supplementation (Invitrogen, cat. 11765054), 100 U/mL penicillin-streptomycin (Invitrogen, cat. 15140122), and 2.5% Matrigel (Corning Inc., cat. 354248) for the first three passages. The 857933-349-R-J2-PDC line was cultured in 6C/Colon 1B media, which includes advanced DMEM/F-12 (Thermo Fisher Scientific, cat. 12634028), 10 mM HEPES (Thermo Fisher Scientific, cat. 15630080), 1X GlutaMAX supplement (Thermo Fisher Scientific, cat. 35050061), 0.1 mg/mL primocin (InvivoGen, cat. ant-pm-2), 10% defined fetal bovine serum, heat inactivated (HyClone Laboratories Inc., cat. SH30070.03HI), 50% L-WRN conditioned media (ATCC, cat. CRL-3276), 1.25 mM N-Acetyl-L-cysteine (Sigma-Aldrich, cat. A9165), 10 mM nicotinamide (Sigma-Aldrich, cat. N0636), 1X B-27 supplement (Thermo Fisher Scientific, cat. 17504044), 1X N-2 supplement (Thermo Fisher Scientific, cat. 17502048), 10 microM Y-27632 dihydrochloride (Tocris Bioscience, cat. 1254), and 50 ng/mL human EGF recombinant protein (Thermo Fisher Scientific, cat. PHG0311). The 485176-168-R4-J1-PDC line was cultured in Panc media, which includes all 6C/Colon 1B media components plus 100 ng/mL human FGF-10 (Thermo Fisher Scientific, cat. 100-26), 500 nM SB-431542 (Selleckchem, cat. S1067), and gastrin (Tocris, cat. 3006).
[…]
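Also: spheroids exposed to compounds for seven days before readout.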
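For viability, T/C in this document: percent viability relative to DMSO vehicle control wells as 100%.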

CC(C)n1c(=O)n(C)c2cnc3cc(F)c(-c4ccc(OCCCN5CCCCC5)nc4)cc3c21
> 10000 nM: IC50 (curve of compound)
inactive: viability, T/C (compound 0.0316 µM) 91.6% and 91.4% and 87.6% | viability, T/C (compound 0.1 µM) 84.9% and 80% and 85% | viability, T/C (compound 0.316 µM) 92.1% and 95.7% and 88.2% | viability, T/C (compound 1 µM) 91.2% and 77.1% and 86.4% | viability, T/C (compound 3.16 µM) 82.5% and 93.8% and 83.5% | viability, T/C (compound 10 µM) 78.8% and 75.8% and 72.5%

CCCS(=O)(=O)Nc1ccc(F)c(C(=O)c2c[nH]c3ncc(-c4ccc(Cl)cc4)cc23)c1F
inactive: viability, T/C (compound 0.0316 µM) 84.4% and 98.5% and 96.2% | viability, T/C (compound 0.1 µM) 94.7% and 85.4% and 64.8% | viability, T/C (compound 0.316 µM) 89.7% and 87.6% and 85% | viability, T/C (compound 1 µM) 82% and 83.2% and 77% | viability, T/C (compound 3.16 µM) 82.2% and 75.4% and 73.2% | viability, T/C (compound 10 µM) 71.2% and 70.3% and 66.2%
> 10000 nM: IC50 (curve of compound)

C=CC(=O)N1CCN(c2nc(=O)n(-c3c(C)ccnc3C(C)C)c3nc(-c4c(O)cccc4F)c(F)cc23)C(C)C1 (centres undefined)
> 10000 nM: IC50 (curve of compound)
inactive: viability, T/C (compound 0.0316 µM) 94.5% and 108% and 99.3% | viability, T/C (compound 0.1 µM) 80.1% and 83.2% and 93.6% | viability, T/C (compound 0.316 µM) 115% and 110% and 111% | viability, T/C (compound 1 µM) 91.1% and 122% and 103% | viability, T/C (compound 3.16 µM) 113% and 109% and 111% | viability, T/C (compound 10 µM) 96.8% and 114% and 107%

Cc1[nH]c2ccc(F)cc2c1-c1nc2c3cccnc3c3ncccc3c2[nH]1
inactive: viability, T/C (compound 0.1 µM) 101% [middle of 12 runs] | viability, T/C (compound 0.316 µM) 97.9% [middle of 12 runs] | viability, T/C (compound 1 µM) 99.5% [middle of 12 runs] | viability, T/C (compound 10 µM) 78.8% [middle of 12 runs]
> 10000 nM: IC50 (compound alone, run of 03/18/2024) | IC50 (compound alone, run of 03/26/2024)

CC[C@@]1(O)C(=O)OCc2c1cc1n(c2=O)Cc2cc3c(CN(C)C)c(O)ccc3nc2-1 + Cc1[nH]c2ccc(F)cc2c1-c1nc2c3cccnc3c3ncccc3c2[nH]1
89 nM: IC50 (curve of first compound, second compound 0.316 µM)
inactive: viability, T/C (second compound 0.0316 µM, first compound 0.000999 µM) 124% | viability, T/C (second compound 0.0316 µM, first compound 0.00316 µM) 107% | viability, T/C (second compound 0.0316 µM, first compound 0.00999 µM) 99.4% | viability, T/C (second compound 0.0316 µM, first compound 0.0316 µM) 70.6% | viability, T/C (second compound 0.0316 µM, first compound 0.0999 µM) 57.5% | viability, T/C (second compound 0.0316 µM, first compound 0.316 µM) 34.4% | viability, T/C (second compound 0.1 µM, first compound 0.000999 µM) 85.6% | viability, T/C (second compound 0.1 µM, first compound 0.00316 µM) 83.4% | viability, T/C (second compound 0.1 µM, first compound 0.00999 µM) 97.1% | viability, T/C (second compound 0.1 µM, first compound 0.0316 µM) 89.8% | viability, T/C (second compound 0.1 µM, first compound 0.0999 µM) 59% | viability, T/C (second compound 0.1 µM, first compound 0.316 µM) 41.1% | viability, T/C (second compound 0.316 µM, first compound 0.000999 µM) 106% | viability, T/C (second compound 0.316 µM, first compound 0.00316 µM) 94.7% | viability, T/C (second compound 0.316 µM, first compound 0.00999 µM) 108% | viability, T/C (second compound 0.316 µM, first compound 0.0316 µM) 75.6% | viability, T/C (second compound 0.316 µM, first compound 0.0999 µM) 50.3% | viability, T/C (second compound 0.316 µM, first compound 0.316 µM) 38.5% | viability, T/C (second compound 1 µM, first compound 0.000999 µM) 93.3% | viability, T/C (second compound 1 µM, first compound 0.00316 µM) 105% | viability, T/C (second compound 1 µM, first compound 0.00999 µM) 118% | viability, T/C (second compound 1 µM, first compound 0.0316 µM) 82.9% | viability, T/C (second compound 1 µM, first compound 0.0999 µM) 56% | viability, T/C (second compound 1 µM, first compound 0.316 µM) 36.5% | viability, T/C (second compound 3.16 µM, first compound 0.000999 µM) 88.1% | viability, T/C (second compound 3.16 µM, first compound 0.00316 µM) 99.7% | viability, T/C (second compound 3.16 µM, first compound 0.00999 µM) 79.9% | viability, T/C (second compound 3.16 µM, first compound 0.0316 µM) 65.3% | viability, T/C (second compound 3.16 µM, first compound 0.0999 µM) 57.2% | viability, T/C (second compound 3.16 µM, first compound 0.316 µM) 33.8% | viability, T/C (second compound 10 µM, first compound 0.000999 µM) 81.5% | viability, T/C (second compound 10 µM, first compound 0.00316 µM) 101% | viability, T/C (second compound 10 µM, first compound 0.00999 µM) 68.3% | viability, T/C (second compound 10 µM, first compound 0.0316 µM) 77.2% | viability, T/C (second compound 10 µM, first compound 0.0999 µM) 58.2% | viability, T/C (second compound 10 µM, first compound 0.316 µM) 34%
148 nM: IC50 (curve of first compound, second compound 10 µM)
121 nM: IC50 (curve of first compound, second compound 3.16 µM)
134 nM: IC50 (curve of first compound, second compound 0.0316 µM)
125 nM: IC50 (curve of first compound, second compound 1 µM)
178 nM: IC50 (curve of first compound, second compound 0.1 µM)
